Measured values: patent US20110178179A1, “1-AMINO-ALKYLCYCLOHEXANE DERIVATIVES FOR THE TREATMENT OF COGNITIVE IMPAIRMENT IN TINNITUS” (MERZ PHARMA GmbH & CO. KGaA, priority 2008, published 2011)

How the values were obtained:
[1] = system: subjects with subjective tinnitus of at least moderate severity; assay: Double-blind placebo-controlled pilot trial of neramexane in tinnitus: THF-12 (TBF-12) questionnaire; type: in vivo, human; details: for TBF-12 functional-communicational score, Actual Mean ± SD / TBF-12 functional-communicational score, Neramexane - Placebo LSMean Diff. ± SE / TBF-12 functional-communicational score, Change Mean ± SD / TBF-12 functional-communicational score, Change LSMean: ITT-LOCF; for TBF-12 functional-communicational score, Change Mean ± SD / TBF-12 functional-communicational score, Change LSMean: baseline to Week 16; for TBF-12 functional-communicational score, Change LSMean: ANCOVA
Method: The objective of this pilot project was to conduct a clinical trial to assess the efficacy of neramexane as a treatment for tinnitus. The primary objective of this study was to compare the efficacy, tolerability and safety of neramexane mesylate at three different dosages (25, 50 or 75 mg/d) with placebo in subjects with subjective tinnitus of at least moderate severity.
(§1) In a double-blind, multicenter, randomized, placebo-controlled, parallel-group study, the efficacy of neramexane in subjects suffering from tinnitus of at least moderate severity was assessed. Approximately 100 patients, who fulfilled particular inclusion criteria and met none of particular exclusion criteria, were randomized to each of four double-blind treatment groups (neramexane mesylate 25, 50, 75 mg/d or placebo), resulting in approximately 400 patients in total.
(§2) The double-blind, 16-week treatment period consisted of a 4-week uptitration period and a 12-week fixed-dose treatment period at maintenance b.i.d. dosing. In case of poor tolerability, however, the investigator could consider a dose reduction by 25 mg/d (or placebo, respectively). After the treatment phase, there was a 4-week follow-up period with no active treatment and concomitant therapy restrictions. In total, this study involved seven study visits: screening, baseline, and at the end of weeks 4, 8, 12, 16, and 20.
Visit 1 (screening): After signing the consent form, the subject underwent a physical examination and clinical laboratory testing. Patient eligibility for the study was evaluated via a check of inclusion/exclusion criteria. An initial Tinnitus Interview was conducted. The subject also completed a Tinnitus-Beeinträchtigungs-Fragebogen (THF-12) (i.e., a 12-item German modified and validated version (Greimel K V et al., Tinnitus-Beeinträchtigungs-Fragebogen (THF-12). Manual. Frankfurt am Main: Swets & Zeitlinger B. V.; 2000) of the 25-item Tinnitus Handicap Inventory or THI (Newman C W, et al. Development of the Tinnitus Handicap Inven-tory. Arch Otolaryngol Head Neck Surg 1996; 122(2): 143-148; Newman C W, et al. Psychometric adequacy of the Tinnitus Handicap Inventory (THI) for evaluating treatment outcome. J Am Acad Audiol 1998; 9(2): 153-160.)), a Hospital Anxiety and Depression Scale—Depression Subscale (HADS-D) Questionnaire and a Hyperacusis (Geräuschüberempfindlichkeit-Fragenbogen (GÜF)) Questionnaire (if applicable).
(§3) Study medication was dispensed at Visit 2 (baseline, day 0). Each patient received one blister box containing 5 blister cards (including one reserve blister) of double-blind study medication (i.e., […]). Subjects were instructed to take 2 tablets twice daily (4 tablets/d), beginning the day after dispensing of the study medication, until they returned for their next study visit (Visit 3). For those subjects assigned to receive active medication, some placebo tablets were incorporated into the dosing regimen to ensure blinding during the uptitration period. The target fixed-maintenance dose of 25, 50, or 75 mg neramexane mesylate/d was administered starting with the fifth week of double-blind treatment and was continued throughout the study. At each of the subsequent visits (Visits 3, 4, and 5, corresponding to end of week 4, 8 and 12) patients received another blister box containing 5 blister cards for the 4 week intervals, with double-blind medication for the intervening treatment period until the next study visit.
Primary Outcome • The change in THF-12 total score from baseline (Visit 2) to the endpoint visit (Visit 6, i.e. Week 16) was the primary efficacy endpoint in this study. […]

[2] = system: subjects with subjective tinnitus of at least moderate severity; assay: Double-blind placebo-controlled pilot trial of neramexane in tinnitus: structured tinnitus interview, question 12/5 (concentration); type: in vivo, human; details: for Concentration: Affected (%) / Concentration: Affected n / Concentration: No effect (%) / Concentration: No effect n / Concentration: Prevented (%) / Concentration: Prevented n: ITT-LOCF
Method: as §1, §2, §3
Secondary Outcomes • THF-12 total score (values and absolute change from baseline) at all post-baseline visits except the endpoint visit. • Change in the THF-12 total score from Week 16 to Week 20 (values and absolute changes). • THF-12 factorial scores (values and absolute change from baseline, including the change from Week 16 to Week 20) at all post-baseline visits. • Hyperacusis questionnaire GÜF (“Geräuschüberempfindlichkeits-Fragebogen”), values and absolute change from baseline, including the change from Week 16 to Week 20, total and factorial scores at all post-baseline visits if hyperacusis was present. • Clinical global impression of change: item 27 of the tinnitus follow-up interview was summarized after dichotomization of the responses in any improvement (values 1, 2, 3) versus no improvement (values 4, 5, 6, 7) and in marked improvement (values 1, 2) versus no marked improvement (values 3, 4, 5, 6, 7). • Total score of HADS-D as well as the depression and anxiety subscale scores (values and absolute change from baseline, also the change from week 16 to week 20) at all post-baseline visits. • Values of tinnitus interview (initial and follow-up) at all post-baseline visits; absolute change from baseline and change from Week 16 to Week 20 for items 8, 9, 10, 19, 20, 21, 24, 25 and 26 of the follow-up interview.
All efficacy analyses were performed on the ITT population using the last-observation-carried-forward (LOCF) approach. For sensitivity purposes an analysis of the per-protocol set and of observed cases was performed additionally. All statistical tests used for testing the primary efficacy (confirmatory testing) and secondary efficacy criteria (exploratory), and all other statistical tests used for exploratory analyses were two-sided hypothesis tests performed at the 5% significance level. For all variables standard descriptive statistics were calculated.

[3] = target: α9/α10 nicotinic receptor (Rattus norvegicus, UniProt P43144+Q9JLB5); details: Plazas, et al., Eur J. Pharmacol., 2007; cited from earlier work
α9/α10 nicotinic receptor, sequence (P43144 26-479): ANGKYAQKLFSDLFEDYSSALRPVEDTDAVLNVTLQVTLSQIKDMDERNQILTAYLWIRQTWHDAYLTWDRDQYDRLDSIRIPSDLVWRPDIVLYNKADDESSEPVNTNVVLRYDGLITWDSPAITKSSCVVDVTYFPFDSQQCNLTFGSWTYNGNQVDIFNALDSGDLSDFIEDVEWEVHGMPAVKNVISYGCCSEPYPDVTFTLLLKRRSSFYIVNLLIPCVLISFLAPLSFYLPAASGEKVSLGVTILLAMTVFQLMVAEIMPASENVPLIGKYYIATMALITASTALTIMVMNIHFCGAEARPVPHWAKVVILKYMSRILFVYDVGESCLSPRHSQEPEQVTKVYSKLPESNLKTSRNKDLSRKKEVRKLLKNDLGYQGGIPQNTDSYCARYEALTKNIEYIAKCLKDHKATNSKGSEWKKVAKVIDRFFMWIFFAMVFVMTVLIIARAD
α9/α10 nicotinic receptor, sequence (Q9JLB5 25-447): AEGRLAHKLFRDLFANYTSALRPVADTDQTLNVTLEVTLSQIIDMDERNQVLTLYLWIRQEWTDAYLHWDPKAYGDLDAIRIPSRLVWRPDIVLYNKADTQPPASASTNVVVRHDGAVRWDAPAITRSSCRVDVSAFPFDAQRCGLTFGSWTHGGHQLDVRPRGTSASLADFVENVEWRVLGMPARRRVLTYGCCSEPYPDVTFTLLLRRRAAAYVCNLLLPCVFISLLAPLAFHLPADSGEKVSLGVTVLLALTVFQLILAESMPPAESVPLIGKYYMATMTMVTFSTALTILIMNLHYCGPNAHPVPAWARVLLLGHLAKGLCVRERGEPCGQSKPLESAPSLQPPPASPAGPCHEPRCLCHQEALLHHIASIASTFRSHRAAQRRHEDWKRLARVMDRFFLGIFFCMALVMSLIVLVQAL

[4] = Baseline, 25 mg/d group, N = 106
[5] = Baseline, 50 mg/d group, N = 106
[6] = Baseline, 75 mg/d group, N = 99
[7] = Week 16 or end of treatment, 25 mg/d, N = 101
[8] = Week 16 or end of treatment, 50 mg/d, N = 103
[9] = Week 16 or end of treatment, 75 mg/d, N = 93
[10] = final daily doses of 50 or 75 mg, 16 weeks, distinct from placebo or low-dose (25 mg)

## CC1(C)CC(C)(C)CC(C)(N)C1 [Neramexane, 1-amino-1,3,3,5,5-pentamethylcyclohexane]
[1]; Baseline, 25 mg/d group, n=106
  TBF-12 functional-communicational score, Actual Mean ± SD: 5.0 ± 2.1
[1]; Baseline, 50 mg/d group, n=106
  TBF-12 functional-communicational score, Actual Mean ± SD: 5.2 ± 1.9
[1]; Baseline, 75 mg/d group, n=99
  TBF-12 functional-communicational score, Actual Mean ± SD: 5.1 ± 2.2
[1]; Week 16, 25 mg/d vs placebo
  TBF-12 functional-communicational score, Neramexane - Placebo LSMean Diff. ± SE: 0.0 ± 0.2
[1]; Week 16, 25 mg/d, n=106
  TBF-12 functional-communicational score, Actual Mean ± SD: 4.3 ± 2.5
[1]; Week 16, 50 mg/d vs placebo
  TBF-12 functional-communicational score, Neramexane - Placebo LSMean Diff. ± SE: −0.5 ± 0.2
[1]; Week 16, 50 mg/d, n=106
  TBF-12 functional-communicational score, Actual Mean ± SD: 3.9 ± 2.2
[1]; Week 16, 75 mg/d vs placebo
  TBF-12 functional-communicational score, Neramexane - Placebo LSMean Diff. ± SE: −0.4 ± 0.2
[1]; Week 16, 75 mg/d, n=99
  TBF-12 functional-communicational score, Actual Mean ± SD: 4.0 ± 2.5
[1]; 25 mg/d
  TBF-12 functional-communicational score, Change Mean ± SD: −0.7 ± 1.5
  TBF-12 functional-communicational score, Change LSMean: −0.7
[1]; 50 mg/d
  TBF-12 functional-communicational score, Change Mean ± SD: −1.2 ± 2.0
  TBF-12 functional-communicational score, Change LSMean: −1.2
[1]; 75 mg/d
  TBF-12 functional-communicational score, Change Mean ± SD: −1.1 ± 1.8
  TBF-12 functional-communicational score, Change LSMean: −1.0
[1]; patients with tinnitus
  effect on cognitive function in patients with tinnitus (conclusion of Example 1): capability to improve cognitive function
[2]; [4]
  Concentration: Affected (%): (82.1) %
  Concentration: Affected n: 87
  Concentration: No effect (%): (12.3) %
  Concentration: No effect n: 13
  Concentration: Prevented (%): (5.7) %
  Concentration: Prevented n: 6
[2]; [5]
  Concentration: Affected (%): (84.0) %
  Concentration: Affected n: 89
  Concentration: No effect (%): (9.4) %
  Concentration: No effect n: 10
  Concentration: Prevented (%): (6.6) %
  Concentration: Prevented n: 7
[2]; [6]
  Concentration: Affected (%): (73.7) %
  Concentration: Affected n: 73
  Concentration: No effect (%): (19.2) %
  Concentration: No effect n: 19
  Concentration: Prevented (%): (7.1) %
  Concentration: Prevented n: 7
[2]; [7]
  Concentration: Affected (%): (81.2) %
  Concentration: Affected n: 82
  Concentration: No effect (%): (17.8) %
  Concentration: No effect n: 18
  Concentration: Prevented (%): (1.0) %
  Concentration: Prevented n: 1
[2]; [8]
  Concentration: Affected (%): (73.8) %
  Concentration: Affected n: 76
  Concentration: No effect (%): (24.3) %
  Concentration: No effect n: 25
  Concentration: Prevented (%): (1.9) %
  Concentration: Prevented n: 2
[2]; [9]
  Concentration: Affected (%): (73.1) %
  Concentration: Affected n: 68
  Concentration: No effect (%): (23.7) %
  Concentration: No effect n: 22
  Concentration: Prevented (%): (3.2) %
  Concentration: Prevented n: 3
[3]
  activity at α9/α10 nicotinic receptor: α9/α10 nicotinic receptor antagonist

## CC1(C)CC(C)(C)CC(C)(N)C1.CS(=O)(=O)O [neramexane mesylate]
[1]; final daily doses of 50 or 75 mg, 16-week double-blind treatment, distinct from placebo or low-dose (25 mg)
  improvement of tinnitus as measured by the THF-12: clear improvement of their tinnitus
[1]; [10]
  improvement of cognition, item one (concentration) and item two (focused attention) of the functional-communicational subscore of the THF-12: clear improvement of their cognition
[2]; [10]
  improvement of concentration, question 12/5 of the structured tinnitus interview: clear improvement of their concentration
